# {TEG} = triethylene glycol spacer
# Assays:
# [1] = system: exon 2 of the human myostatin gene (huMSTN); assay: Exon 2 skipping by RT-PCR in nucleofected human rhabdomyosarcoma (RD) cells; type: cell-based; conditions: for EC50: RD cells nucleofected with PMO at 10, 3, 1, 0.3 μM, overnight, concentration inducing 50% exon skipping; for exon skipping, in words: third series, FIG. 5, RD cells, based on the calculated EC50 values
# Description: (§1) In vitro experiments were performed to investigate the ability of antisense oligonucleotides designed and prepared as described above to decrease the expression of exon 2 containing myostatin pre-mRNA. Both human rhabdomyosarcoma cells (RD cells; ATCC CCL-136) and primary human myoblasts were used in the experiments as noted. RD cells or primary human skeletal myoblasts were nucleofected with PMOs at 10, 3, 1 and 0.3 μM in SG or P3 nucleofector solution, respectively, and incubated overnight at 37° C. with 5% CO2. Total RNA was isolated from the cells and RT-PCR was performed using primers Myostatin EX1 Fwd (5′ […] SEQ ID NO: 48) and Myostatin EX3 Rev (5′ […] SEQ ID NO: 49). Amplified samples were analyzed using the LabChip Caliper to determine percent exon 2 skipping. EC50 values were determined using non-linear regression analysis in GraphPad Prism. EC50 values represent the concentration at which the test PMO induces 50% exon skipping.
# [2] = system: exon 2 of the human myostatin gene (huMSTN); assay: Exon 2 skipping by RT-PCR in nucleofected primary human myoblasts; type: cell-based; conditions: primary human myoblasts nucleofected with PMO at 10, 3, 1, 0.3 μM, overnight, concentration inducing 50% exon skipping
# Description: as §1
# [3] = second series (FIG. 4), * = ambiguous fit on non-linear regression
substance,measurement,setting,value
"huMSTN-SA2(02 + 23): PMO, 5′ TEG, 3′ H; targeting sequence ATCCACTTGCATTAGAAAATCAGCT (all phosphorodiamidate morpholino (PMO), 5' {TEG})",EC50,[1]; third series (FIG. 5),1020 nM
"huMSTN-SA2(−01 + 24): PMO, 5′ TEG, 3′ H; targeting sequence CATCCACTTGCATTAGAAAATCAGC (all phosphorodiamidate morpholino (PMO), 5' {TEG})",EC50,[1]; third series (FIG. 5),551 nM
same,"exon skipping, in words",[1],most effective
"huMSTN-SA2(−01 + 25): PMO, 5′ TEG, 3′ H; targeting sequence CCATCCACTTGCATTAGAAAATCAGC (all phosphorodiamidate morpholino (PMO), 5' {TEG})",EC50,[2]; first series (FIG. 3),2160 nM
"huMSTN-SA2(−03 + 22): PMO, 5′ TEG, 3′ H; targeting sequence TCCACTTGCATTAGAAAATCAGCTA (all phosphorodiamidate morpholino (PMO), 5' {TEG})",EC50,[1]; third series (FIG. 5),11900 nM
"huMSTN-SA2(−04 + 21): PMO, 5′ TEG, 3′ H; targeting sequence CCACTTGCATTAGAAAATCAGCTAT (all phosphorodiamidate morpholino (PMO), 5' {TEG})",EC50,[1]; third series (FIG. 5),365 nM
same,"exon skipping, in words",[1],most effective
"huMSTN-SA2(−05 + 20): PMO, 5′ TEG, 3′ H; targeting sequence CACTTGCATTAGAAAATCAGCTATA (all phosphorodiamidate morpholino (PMO), 5' {TEG})",EC50,[1]; third series (FIG. 5),214 nM
same,"exon skipping, in words",[1],most effective
same,EC50,[2]; first series (FIG. 3),3860 nM
"huMSTN-SA2(−07 + 18): PMO, 5′ TEG, 3′ H; targeting sequence CTTGCATTAGAAAATCAGCTATAAA (all phosphorodiamidate morpholino (PMO), 5' {TEG})",EC50,[1]; third series (FIG. 5),881 nM
"muhuD30-SD2(+30 + 1): sequence known in the prior art (US 2013/0085139), 5′ TEG, 3′ H; CAGCCCATCTTCTCCTGGTCCTGGGAAGGT (all phosphorodiamidate morpholino (PMO), 5' {TEG}) [reference compound]",EC50,[1]; [3],522 nM
same,EC50,[2]; first series (FIG. 3),2700 nM
"muhuMSTN-SD2(+01 − 23): PMO, 5′ TEG, 3′ H; targeting sequence TGTTATTTTCAGTTATCACTTACC (all phosphorodiamidate morpholino (PMO), 5' {TEG})",EC50,[2]; fourth series (FIG. 6),648 nM
"muhuMSTN-SD2(+01 − 24): PMO, 5′ TEG, 3′ H; targeting sequence ATGTTATTTTCAGTTATCACTTACC (all phosphorodiamidate morpholino (PMO), 5' {TEG})",EC50,[2]; fourth series (FIG. 6),642 nM
"muhuMSTN-SD2(+02 − 18): PMO, 5′ TEG, 3′ H; targeting sequence TTTTCAGTTATCACTTACCA (all phosphorodiamidate morpholino (PMO), 5' {TEG})",EC50,[2]; fourth series (FIG. 6),6210 nM
"muhuMSTN-SD2(+02 − 19): PMO, 5′ TEG, 3′ H; targeting sequence ATTTTCAGTTATCACTTACCA (all phosphorodiamidate morpholino (PMO), 5' {TEG})",EC50,[2]; fourth series (FIG. 6),3580 nM
"muhuMSTN-SD2(+02 − 20): PMO, 5′ TEG, 3′ H; targeting sequence TATTTTCAGTTATCACTTACCA (all phosphorodiamidate morpholino (PMO), 5' {TEG})",EC50,[2]; fourth series (FIG. 6),4060 nM
"muhuMSTN-SD2(+02 − 21): PMO, 5′ TEG, 3′ H; targeting sequence TTATTTTCAGTTATCACTTACCA (all phosphorodiamidate morpholino (PMO), 5' {TEG})",EC50,[2]; fourth series (FIG. 6),3990 nM
"muhuMSTN-SD2(+02 − 22): PMO, 5′ TEG, 3′ H; targeting sequence GTTATTTTCAGTTATCACTTACCA (all phosphorodiamidate morpholino (PMO), 5' {TEG})",EC50,[2]; fourth series (FIG. 6),687 nM
"muhuMSTN-SD2(+02 − 23): PMO, 5′ TEG, 3′ H; targeting sequence TGTTATTTTCAGTTATCACTTACCA (all phosphorodiamidate morpholino (PMO), 5' {TEG})",EC50,[2]; fourth series (FIG. 6),277 nM
"muhuMSTN-SD2(+04 − 16): PMO, 5′ TEG, 3′ H; targeting sequence TTCAGTTATCACTTACCAGC (all phosphorodiamidate morpholino (PMO), 5' {TEG})",EC50,[2]; fourth series (FIG. 6),3910 nM
"muhuMSTN-SD2(+04 − 21): PMO, 5′ TEG, 3′ H; targeting sequence TTATTTTCAGTTATCACTTACCAGC (all phosphorodiamidate morpholino (PMO), 5' {TEG})",EC50,[1]; [3],0.92 nM
same,EC50,[2]; first series (FIG. 3),1050 nM
"muhuMSTN-SD2(+05 − 16): PMO, 5′ TEG, 3′ H; targeting sequence TTCAGTTATCACTTACCAGCC (all phosphorodiamidate morpholino (PMO), 5' {TEG})",EC50,[2]; fourth series (FIG. 6),1330 nM
"muhuMSTN-SD2(+06 − 16): PMO, 5′ TEG, 3′ H; targeting sequence TTCAGTTATCACTTACCAGCCC (all phosphorodiamidate morpholino (PMO), 5' {TEG})",EC50,[2]; fourth series (FIG. 6),829 nM
"muhuMSTN-SD2(+07 − 16): PMO, 5′ TEG, 3′ H; targeting sequence TTCAGTTATCACTTACCAGCCCA (all phosphorodiamidate morpholino (PMO), 5' {TEG})",EC50,[2]; fourth series (FIG. 6),612 nM
"muhuMSTN-SD2(+07 − 18): PMO, 5′ TEG, 3′ H; targeting sequence TTTTCAGTTATCACTTACCAGCCCA (all phosphorodiamidate morpholino (PMO), 5' {TEG})",EC50,[1]; [3],0.06 nM
same,EC50,[2]; first series (FIG. 3),662 nM
"muhuMSTN-SD2(+08 − 16): PMO, 5′ TEG, 3′ H; targeting sequence TTCAGTTATCACTTACCAGCCCAT (all phosphorodiamidate morpholino (PMO), 5' {TEG})",EC50,[2]; fourth series (FIG. 6),622 nM
"muhuMSTN-SD2(+09 − 11): PMO, 5′ TEG, 3′ H; targeting sequence TTATCACTTACCAGCCCATC (all phosphorodiamidate morpholino (PMO), 5' {TEG})",EC50,[2]; fourth series (FIG. 6),> 10000 nM
"muhuMSTN-SD2(+09 − 12): PMO, 5′ TEG, 3′ H; targeting sequence GTTATCACTTACCAGCCCATC (all phosphorodiamidate morpholino (PMO), 5' {TEG})",EC50,[2]; fourth series (FIG. 6),4350 nM
"muhuMSTN-SD2(+09 − 13): PMO, 5′ TEG, 3′ H; targeting sequence AGTTATCACTTACCAGCCCATC (all phosphorodiamidate morpholino (PMO), 5' {TEG})",EC50,[2]; fourth series (FIG. 6),2400 nM
"muhuMSTN-SD2(+09 − 14): PMO, 5′ TEG, 3′ H; targeting sequence CAGTTATCACTTACCAGCCCATC (all phosphorodiamidate morpholino (PMO), 5' {TEG})",EC50,[2]; fourth series (FIG. 6),1250 nM
"muhuMSTN-SD2(+09 − 15): PMO, 5′ TEG, 3′ H; targeting sequence TCAGTTATCACTTACCAGCCCATC (all phosphorodiamidate morpholino (PMO), 5' {TEG})",EC50,[2]; fourth series (FIG. 6),771 nM
"muhuMSTN-SD2(+09 − 16): PMO, 5′ TEG, 3′ H; targeting sequence TTCAGTTATCACTTACCAGCCCATC (all phosphorodiamidate morpholino (PMO), 5' {TEG})",EC50,[2]; fourth series (FIG. 6),549 nM
"muhuMSTN-SD2(+10 − 15): PMO, 5′ TEG, 3′ H; targeting sequence TCAGTTATCACTTACCAGCCCATCT (all phosphorodiamidate morpholino (PMO), 5' {TEG})",EC50,[1]; [3],0.02 nM
same,EC50,[1]; third series (FIG. 5),115 nM
same,"exon skipping, in words",[1],most effective
same,EC50,[2]; first series (FIG. 3),1070 nM
"muhuMSTN-SD2(+13 − 12): PMO, 5′ TEG, 3′ H; targeting sequence GTTATCACTTACCAGCCCATCTTCT (all phosphorodiamidate morpholino (PMO), 5' {TEG})",EC50,[1]; [3],970 nM
"muhuMSTN-SD2(+18 − 07): PMO, 5′ TEG, 3′ H; targeting sequence CACTTACCAGCCCATCTTCTCCTGG (all phosphorodiamidate morpholino (PMO), 5' {TEG})",EC50,[1]; [3],1290 nM
same,EC50,[2]; first series (FIG. 3),3880 nM
"muhuMSTN-SD2(+19 − 06): PMO, 5′ TEG, 3′ H; targeting sequence ACTTACCAGCCCATCTTCTCCTGGT (splice-switching; all phosphorodiamidate morpholino (PMO), 5' {TEG})",EC50,[1]; [3],1330 nM
"muhuMSTN-SD2(+22 − 03): PMO, 5′ TEG, 3′ H; targeting sequence TACCAGCCCATCTTCTCCTGGTCCT (splice-switching; all phosphorodiamidate morpholino (PMO), 5' {TEG})",EC50,[1]; [3],1410 nM
"muhuMSTN-SD2(+24 − 01): PMO, 5′ TEG, 3′ H; targeting sequence CCAGCCCATCTTCTCCTGGTCCTGG (splice-switching; all phosphorodiamidate morpholino (PMO), 5' {TEG})",EC50,[1]; [3],1410 nM

# Source: US11015200B2, “Antisense-induced exon exclusion in myostatin” (Sarepta Therapeutics, Inc., priority 2015, dated 2021)
